Assays:
NCI-H358 cells = assay: CellTiter-Glo cellular proliferation/viability assay, fixed concentration of KRAS G12C inhibitor; assay type: cell-based; settings: Homo sapiens, 120 h, compound of Formula I alone, 5 days, read-out: 2D CTG IC50
From the text: The combination was studied by a cell viability assay. NCI-H358 cells were split onto a 96-well plate.

NCI-H2122 cells = assay: as above; assay type: cell-based; settings: Homo sapiens, NCI-H2122, 120 h, compound of Formula I alone, 5 days, read-out: 2D CTG IC50

IC50 (NCI-H358 cells): 168 nM
IC50 (NCI-H2122 cells): 2780 nM
Structure (SMILES): COCOC[C@H]1C[C@H]2COc3c(Sc4cnc(N5CCC6(CC5)CO[C@@H](C)[C@H]6N)c(CO)n4)ccnc3N2C1 [The compound of Formula I]

From patent publication US20250195533A1, “COMBINATION THERAPIES FOR THE TREATMENT OF CANCER” (Erasca, Inc., priority 2020, published 2025)
